B1: SQHKSSSGQSSGYSQHGSGSGHSSGYGQHGSRSGQSSRGDRHRSSSGSSSSYGQHGSGSRQSL (peptide)
chain: SQHKSSSGQSSGYSQHGSGSGHSSGYGQHGSRSGQSSRGDRHRSSSGSSSSYGQHGSGSRQSL
modifications: Peptide derived from human hornerin (HRNR 232-294)
B2: LGHGQHGSGSGQSPSPSRGRHGSGSGQSSSYGPYRSGSGWSSSRGPYESGSGHSSGLGHRER (peptide)
chain: LGHGQHGSGSGQSPSPSRGRHGSGSGQSSSYGPYRSGSGWSSSRGPYESGSGHSSGLGHRER
modifications: Peptide derived from human hornerin (HRNR 995-1056)
B3: GHKSSSGQSSGYTQHGSGSGHSSSYEQHGSRSGQSSRSEQHGSSSGSSSSYGQHGSGSRQSL (peptide)
chain: GHKSSSGQSSGYTQHGSGSGHSSSYEQHGSRSGQSSRSEQHGSSSGSSSSYGQHGSGSRQSL
modifications: Peptide derived from human hornerin (HRNR 933-994)
B4: GHGRQGSGSRQSPSHVRHGSGSGHSSSHGQHGSGSSYSYSRGHYESGSGQTSGFGQHESGSGQSSGY (peptide)
chain: GHGRQGSGSRQSPSHVRHGSGSGHSSSHGQHGSGSSYSYSRGHYESGSGQTSGFGQHESGSGQSSGY
modifications: Peptide derived from human hornerin (HRNR 295-361)

The record followed here is US11479587B2, “Cationic intrinsically disordered antimicrobial peptides” (priority 2016, dated 2022).

Marks after values point to notes of the source that are not given here. Some results are limits rather than exact numbers.

The subject of one assay is P. aeruginosa ATCC 10145. As to the kind of experiment: CFU-assay, P. aeruginosa-cidal activity. It counts as cell-based, Pseudomonas aeruginosa. The settings on record: pH 5.0, 0.25% glucose.
Regarding “RGSGSGHQGHSSSHGLGSGHRG (Peptide with reverse sequence to 18 amino acid peptide derived from human hornerin (revHR 1-18))”, the MBC90 is <0.019 µg/mL and the MBC100 turned out to be 0.075 µg/mL. On to “SLSSGHGSGHGHQRGGHRSGSG (Peptide with scrambled amino acid sequence of a 18 amino acid peptide derived from human hornerin (scrHR 1-18))”, for which the MBC90 is <0.019 µg/mL and the MBC100 was determined as 0.075 µg/mL.

Still in this assay, the particulars now being: pH 5.5, 0.25% glucose.
With “HGHGHGHGH (Synthetic cationic intrinsically disordered antimicrobial peptide (GH9))”, the MBC90 was 0.18 µM; the MBC99 result is recorded as “MBC99: 99 μM”; the MBC100 is >400, μM. “HGQSTQRGSRTAGRRGSGH (Peptide derived from human filaggrin-2 (FLG-2 2087-2105)) [FLG-22087-2105]”: the MBC90 came out at 0.075 µg/mL and the MBC100 turned out to be 1.18 µg/mL. Regarding “HGSGLGHSSSHGQHGSGSGR (Peptide derived from human hornerin (HR 1-8 HRNR2658-2677))”, the MBC90 amounted to 4.7 µg/mL and the MBC100 was >300 µg/mL. As for “HSQRGSGSRQSPSYGRH (Modified peptide derived from human hornerin (HR 2-16 HRNR1128-1144))”, the MBC100 is given as 37.5 (only at μg/ml. As for “HSSSHGQHGSGSGR (Peptide derived from human hornerin (HR 1-38 HRNR 2664-2677)) [HR 1-38 HRNR2664-2677]”, the MBC100 was >300 µg/mL. The molecule “HTHSGHAHGQAGSQHGESGSSVHER (Peptide derived from human filaggrin-2 (FLG-2 2044-2068)) [FLG-22044-2068]” gave an MBC90 of 0.038 µg/mL and an MBC100 of 0.3 µg/mL. The matching figures for “HTHSGHTHGQAGSHYPESGSSVHER (Peptide derived from human filaggrin-2 (FLG-2 1969-1993)) [FLG-21969-1993]”: 0.038 µg/mL and 0.3 µg/mL. In the same order, the values of “HTHSGHTHGQARSQHGESESIVHER (Peptide derived from human filaggrin-2 (FLG-2 1742-1766)) [FLG-21742-1766]” are 0.038 µg/mL and 0.15 µg/mL. “HTHSGHTHGQSGSQHGESESIIHDR (Peptide derived from human filaggrin-2 (FLG-2 1515-1539)) [FLG-21515-1539]” registered an MBC90 of 0.075 µg/mL and an MBC100 of 0.59 µg/mL. In the same order, the values of “HTHSGHTHSQARSQHGESESTVHKR (Peptide derived from human filaggrin-2 (FLG-2 1894-1918)) [FLG-21894-1918]” are 0.038 µg/mL and 0.3 µg/mL. In the same order, the values of “LGHSSSHGQHGSGSGRSSSRGPYESRLGH [HR 1-36 HRNR2663-2690]” are 0.15 µg/mL and 2.35 µg/mL.

“QGSHHEQSVNRSGHSGSHHSHTTSQGR (Peptide derived from human filaggrin (FLG 528-554)) [FLG528-554]” registered an MBC90 of 0.15 µg/mL and an MBC100 of 0.59 µg/mL. The matching figures for “RGR (Synthetic cationic intrinsically disordered antimicrobial peptide (GR3))”: 150 µM and >930 µM.

With “RGRGR (Synthetic cationic intrinsically disordered antimicrobial peptide (GR5))”, the MBC90 turned out to be 6.1 µM and the MBC100 is >500 µM. Take “RGRGRGR (Synthetic cationic intrinsically disordered antimicrobial peptide (GR7))”: the MBC90 came out at 0.31 µM and the MBC100 was 2.8 µM.

As for “RGRGRGRGR (Synthetic cationic intrinsically disordered antimicrobial peptide (GR9))”, the MBC90 worked out at 0.22 µM; the MBC99 entry is recorded as “MBC99: 10.2 μM”; the MBC100 is recorded as >400, μM. On to “RGSRSGQSSRGERR (Modified peptide derived from human hornerin (HR 1-11s 2H2R-14))”, for which the MBC90 worked out at 0.15 µg/mL and the MBC100 was 4.7 µg/mL. The matching figures for “RGSRSGQSSRGERRGSSSGSSSR (Modified peptide derived from human hornerin (HR 1-11 3H3R))”: 0.3 µg/mL and 9.375* μg/ml.

With “RHGSGLGHSSSH (Peptide derived from human hornerin (HR 1-27 HRNR 2657-2668)) [HR 1-27 HRNR2657-2668]”, the MBC90 is 75-100* μg/ml. Consider “RHGSGLGHSSSHGQH (Peptide derived from human hornerin (HR 1-26 HRNR 2657-2671)) [HR 1-26 HRNR2657-2671]”, for which the MBC100 was 4.7-75* μg/ml. As for “TAGRRGSGH (Peptide derived from human filaggrin-2 (FLG-2 2097-2105)) [FLG-22097-2105]”, the MBC90 was >300 µg/mL and the MBC100 was >300 µg/mL. Turning to “THEHEQSHQRRDRQTHEDKQNRQR (Peptide derived from human repetin (RPTN 747-770)) [RPTN747-770]”, the MBC90 turned out to be 0.3 µg/mL and the MBC100 was determined as 150 µg/mL. The matching figures for B1: 0.30 µg/mL and 2.35 µg/mL.

Take B2: the MBC90 was determined as 0.3 µg/mL and the MBC100 stood at 2.35 µg/mL. The matching figures for B3: 0.3 µg/mL and 2.35 µg/mL. B4 came in with an MBC90 of 0.15 µg/mL and an MBC100 of 0.59 µg/mL.

The same assay, now with this note: pH 5.5, 1% TSB.
In the case of “HGSGLGHSSSHGQHGSGSGR (Peptide derived from human hornerin (HR 1-8 HRNR2658-2677))”, the MBC100 is >300 µg/mL. For “HGSGSGQSSRGERHGSSSGSSSH (Modified peptide derived from human hornerin (HR 1-11 R1-G R2609G))”, the MBC90 is >300* μg/ml and the MBC100 was >300* μg/ml. Consider “HGSRSGQSSGGERHGSSSGSSSH (Modified peptide derived from human hornerin (HR 1-11 R2-G R2615G))”, for which the MBC90 was 75 µg/mL and the MBC100 is >300 µg/mL. The matching figures for “HGSRSGQSSGGGRHGSSSGSSSH (Modified peptide derived from human hornerin (HR 1-11 E-G E2617G))”: 0.59 µg/mL and >300 µg/mL. In the same order, the values of “HGSRSGQSSRGEGHGSSSGSSSH (Modified peptide derived from human hornerin (HR 1-11 R3-G R2618G))” are 75 µg/mL and >300 µg/mL.

In the case of “HGSRSGQSSRGERGGSSSGSSSH (Modified peptide derived from human hornerin (HR 1-11 H2-G H2619G))”, the MBC90 amounted to 75 µg/mL and the MBC100 is >300 µg/mL. The matching figures for “HGSRSGQSSRGERHGSSSGSSSG (Modified peptide derived from human hornerin (HR 1-11 H3-G H2628G))”: 18.75 µg/mL and >300 µg/mL. The matching figures for “HGSSSGSSSHYGQHGSGSR (Peptide derived from human hornerin (HR 1-4 HRNR 2619-2637)) [HR 1-4 HRNR2619-2637]”: 150 µg/mL and >300 µg/mL. Regarding “HR 2-8: CIDAMP tested alone and in 1:1 mixture with HR 1-8 HRNR2658-2677 (GSGSRQSPSYGR; Peptide derived from human hornerin (HR 2-8))”, the MBC90 was determined as 18.75 µg/mL and the MBC100 is >300 µg/mL. The matching figures for “RQSPSYGRHGSGSGR (Peptide derived from human hornerin (HR 2-14 HRNR 1136-1150)) [HR 2-14 HRNR1136-1150]”: 300 µg/mL and >300 µg/mL. In the same order, the values of “SRQSPSYGRHGSGR (Modified peptide derived from human hornerin (HR 2-15 HRNR 1136-1150 S1148R)) [HR 2-15 HRNR1136-1150 S1148R]” are 75 µg/mL and >300 µg/mL.
